Numbering of substitutions follows the chain as printed.
Legend:
[1] = system: Gαq-coupled mAChRs (M1, M3, M5); conditions: M1, M3, M5 mAChRs ref 27; cited from earlier work
ACh-bound M5 mAChR = molecular target: T1, ACh-bound M5 mAChR (Homo sapiens, UniProt P08912); test: Binding affinity for the ACh-bound receptor (chemical probe statement); conditions: determined in this study and others
T1 sequence (P08912 1-532): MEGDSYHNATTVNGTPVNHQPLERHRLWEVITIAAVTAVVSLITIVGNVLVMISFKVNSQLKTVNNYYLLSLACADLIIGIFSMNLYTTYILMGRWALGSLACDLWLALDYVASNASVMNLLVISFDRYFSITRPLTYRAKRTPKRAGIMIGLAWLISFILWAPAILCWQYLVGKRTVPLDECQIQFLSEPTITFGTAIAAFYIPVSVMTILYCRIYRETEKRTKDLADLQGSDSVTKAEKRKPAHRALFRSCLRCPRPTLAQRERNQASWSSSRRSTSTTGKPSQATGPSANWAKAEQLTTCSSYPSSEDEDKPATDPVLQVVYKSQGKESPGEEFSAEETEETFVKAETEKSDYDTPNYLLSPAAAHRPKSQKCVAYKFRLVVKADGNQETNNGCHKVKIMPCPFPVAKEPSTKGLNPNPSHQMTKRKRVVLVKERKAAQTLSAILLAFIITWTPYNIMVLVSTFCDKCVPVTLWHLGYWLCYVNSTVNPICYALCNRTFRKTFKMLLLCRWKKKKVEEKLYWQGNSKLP

hM5 mAChR [2] = test: Inositol monophosphate (IP1) accumulation assay, ML380-ACh interaction; type: cell-based, human; conditions: ECV allosteric site alanine mutants of M5 mAChR, CHO cells
Method: (§1) FlpIn CHO cells stably expressing either WT or mutant hM5 mAChR were seeded in clear, flat bottom 96-well plates at a density of 10,000−25,000 cells per well (depending on the cell line) one day prior to the assay. The optimal cell density for each line was chosen based on achieving an IP1 response that fell within the linear range of the IP1 standard curve. On the assay day, the medium was replaced with stimulation buffer (Hanks’ balanced salt solution (HBSS) containing 10 mM HEPES, 1.3 mM CaCl2, and 30 mM LiCl, pH 7.4) and allowed to incubate for 60 minutes at 37 °C before ligand stimulation. After this pre-incubation, the buffer was replaced, and cells were exposed to ligands for 60 minutes at 37 °C in a 5% CO2 atmosphere, with a total assay volume of 100 μL. Following the 60-minute stimulation, ligands were removed by rapid removal of buffer. Cells were lysed by freeze-thawing in 30 μL of stimulation buffer. IP1 accumulation was then quantified using the HTRF IP-One assay kit (Cisbio), with fluorescence measured on an EnVision multilabel plate reader (PerkinElmer).
(§2) All data were analysed using GraphPad Prism 10 (GraphPad Software, San Diego, CA). The interaction between orthosteric agonist and allosteric modulator in functional assays was analysed using an operational model of allosterism to determine functional modulation (log αβ) and affinity (pKB) parameters. Radioligand saturation binding experiments with [^3H]-NMS to determine Bmax and pKD values were determined using a one site – specific binding equation in Prism 10^31. For the radioligand binding interaction of orthosteric agonist with various concentrations of allosteric modulator, the data were fit to an allosteric ternary complex model to derive pKB and α binding cooperativity parameters. All affinity, potency, cooperativity, and efficacy parameters were estimated as logarithms. To ensure model convergence in all instances, allosteric parameters were determined from the respective allosteric models, which were globally fitted to all individual datasets for each allosteric modulator at each receptor construct. […]

hM5 mAChR [3] = molecular target: T2, hM5 mAChR (Homo sapiens, UniProt P08912, A113V/G152A/L156V); test: as above; type: cell-based; conditions: M5 EH4 pocket mutant (A113V, G152A, L156V), CHO cells
T2 construct: expressed in transfected cells
T2 sequence (P08912 1-532 A113V/G152A/L156V): T1 sequence (P08912 1-532) with A113V, G152A, L156V
Method: as §1, §2

hM5 mAChR [4] = molecular target: T3, hM5 mAChR (Homo sapiens, UniProt P08912); test: as above; type: cell-based; conditions: WT M5 mAChR, CHO cells
T3 construct: expressed in transfected cells
T3 sequence (P08912 1-532): T1 sequence (P08912 1-532)
Method: as §1, §2

hM5 mAChR [5] = test: [3H]-NMS equilibrium radioligand binding, interaction of ACh and allosteric modulator; parameters: species or system human
Method: FlpIn CHO cells stably expressing WT hM5 mAChR or mutants were plated at 25,000 cells per well in 96-well isoplates (PerkinElmer Life Sciences) and incubated overnight at 37 °C in a 5% CO2 incubator. The following day, the cells were washed with PBS and incubated in 20 mM HEPES, 100 mM NaCl, 10 mM MgCl2, pH 7.4. For saturation binding experiments, the cells were incubated with varying concentrations of the orthosteric antagonist [^3H]-N-methylscopolamine ([^3H]-NMS; specific activity, 70 Ci/mmol, Perkin Elmer) in a final volume of 100 μL for 6 hours at room temperature. […] Radioactivity was measured by adding 100 μL of Optiphase Supermix scintillation fluid (PerkinElmer) and counted using a MicroBeta^2 Plate Counter (PerkinElmer Life Sciences).
All data were analysed using GraphPad Prism 10 (GraphPad Software, San Diego, CA). The interaction between orthosteric agonist and allosteric modulator in functional assays was analysed using an operational model of allosterism to determine functional modulation (log αβ) and affinity (pKB) parameters. Radioligand saturation binding experiments with [^3H]-NMS to determine Bmax and pKD values were determined using a one site – specific binding equation in Prism 10^31. […]

[6] = cited from earlier work

Structure (SMILES) | Effect on ACh signalling [1] | Kd (ACh-bound M5 mAChR) [nM] | ML380 function at ECV alanine mutants (hM5 mAChR [2]) | Change in ML380 affinity (pKB) compared to WT (hM5 mAChR [3]) | Activity of ML380 and cooperativity with ACh (hM5 mAChR [4]) | ML380 cooperativity with ACh versus WT (hM5 mAChR [5]; M5/M2 TM1,7,h8 chimera) | ML380's ability to modulate ACh binding (hM5 mAChR [5]; M5/M2 TM2,3,4 and M5/M2 TM3,4,5 chimeras (swapping TM2-5)) | CNS penetration [6] | Partition coefficients ([6]; limited in vivo utility ref 25)
O=C1C(=O)N(Cc2ccc(Br)cc2)c2ccccc21 [VU0119498] | enhanced | – | – | – | – | – | – | – | –
CCN(Cc1ccccc1C(F)(F)F)C(=O)C1CCN(S(=O)(=O)c2ccc3[nH]ncc3c2)CC1 [ML380, 1-((1H-indazol-5-yl)sulfoneyl)-N-ethyl-N-(2-(trifluoromethyl)benzyl)piperidine-4-carboxamide] | – | ~575 | retained its ability to bind, activate, and modulate receptor function | no significant change in affinity | both agonism and positive cooperativity with ACh | increased | completely abolished | penetrate the CNS | poor

— publication PMC12314052 (Nature Communications, 2025)
